Source: patent publication US7598206B2, “Fungicidal mixtures” (BASF Aktiengesellschaft, priority 2004, dated 2009)

Columns and labels:
Assay type in all cases: in vivo
Botrytis cinerea [1] = assay: Use example 1: activity against gray mold on bell pepper leaves, 1 day protective application; details: efficacy in % of untreated control (Abbot), sprayed 1 day before inoculation, rated after 5 days, read-out: Observed activity (%)
Method: (§1) The active compounds were prepared jointly or separately as a stock solution with 25 mg of active compound which was made up to 10 ml using a mixture of acetone and/or DMSO and the emulsifier Uniperol® EL (wetting agent having emulsifying and dispersing action based on ethoxylated alkylphenols) in a volume ratio of solvent/emulsifier of 99 to 1. The mixture was then made up with water to 100 ml. This stock solution was diluted with the solvent/emulsifier/water mixture described to the concentration of active compounds stated below.
(§2) The active compounds epoxiconazole and pyraclostrobin were used as commercial formulations and diluted with water to the stated concentration.
(§3) The visually determined percentages of infected leaf areas were converted into efficacies in % of the untreated control:
(§4) The efficacy (E) is calculated as follows using Abbot's formula: E=(1−α/β)·100 • α corresponds to the fungicidal infection of the treated plants in % and • β corresponds to the fungicidal infection of the untreated (control) plants in % […]
(§5) The expected efficacies of mixtures of active compounds were determined using Colby's formula (Colby, S. R. “Calculating synergistic and antagonistic responses of herbicide combinations”, Weeds, 15, 1967, p. 20-22) and compared with the observed efficacies. […]

Alternaria solani = assay: Use example 3: 5 day protective activity against early blight of tomato; details: sprayed 5 days before infection, rated after 5 days, read-out: Observed activity (%)
Method: as §1, §2, §3, §4, §5

Botrytis cinerea [2] = assay: Use example 2: activity against gray mold on bell pepper leaves, 5 day protective application; details: sprayed 5 days before inoculation, read-out: Observed activity (%)
Method: as §1, §2, §3
The efficacy (E) is calculated as follows using Abbot's formula: E=(1−α/β)·100 • α corresponds to the fungicidal infection of the treated plants in % and • β corresponds to the fungicidal infection of the untreated (control) plants in %
An efficacy of 0 means that the infection level of the treated plants corresponds to that of the untreated control plants; an efficacy of 100 means that the treated plants were not infected.
The expected efficacies of mixtures of active compounds were determined using Colby's formula (Colby, S. R. “Calculating synergistic and antagonistic responses of herbicide combinations”, Weeds, 15, 1967, p. 20-22) and compared with the observed efficacies.
Colby's formula: E=x+y−x·y/100 • E expected efficacy, expressed in % of the untreated control, when using the mixture of the active compounds A and B at the concentrations a and b • x efficacy, expressed in % of the untreated control, when using the active compound A at the concentration a • y efficacy, expressed in % of the untreated control, when using the active compound B at the concentration b
Use example 2-activity against gray mold on bell pepper leaves caused by Botrytis cinerea, 5 day protective application
Bell pepper seedlings of the cultivar “Neusiedler Ideal Elite” were, after 2-3 leaves were well developed, sprayed to runoff point with an aqueous suspension having the active compound concentration given below. After 5 days, the treated plants were inoculated with a spore suspension of Botrytis cinerea which comprised 1.7×10^6 spores/ml in a 2% strength aqueous biomalt solution. The test plants were then placed in a dark climatized chamber at 22 to 24° C. and high atmospheric humidity. After 5 days, the extent of the fungal infection on the leaves could be determined visually in %.

Fc1ccc([C@]2(Cn3cncn3)O[C@H]2c2ccccc2Cl)cc1 (racemic) [epoxiconazole (A7), (2RS,3SR)-1-[3-(2-chlorophenyl)-2,3-epoxy-2-(4-fluorophenyl)propyl]-1H-1,2,4-triazole]
inhibition at 4 ppm (Botrytis cinerea [1]): 0%

CN1OC(c2ccc(Cl)cc2)CC1(C)c1cccnc1 (centres unmarked) [SYP-Z048 (I)]
inhibition at 1 ppm (Alternaria solani; 1 ppm): 0% | inhibition at 4 ppm (Botrytis cinerea [1]): 70% | inhibition at 16 ppm (Botrytis cinerea [2]; 16 ppm, rated after 5 days): 0%

O=C(Nc1ccccc1-c1ccc(Cl)cc1)c1cccnc1Cl [boscalid (C3), 2-chloro-N-(4′-chlorobiphenyl-2-yl)nicotinamide]
inhibition at 4 ppm (Alternaria solani; 4 ppm): 56% | inhibition at 4 ppm (Botrytis cinerea [2]; 4 ppm): 0%

COC(=O)N(OC)c1ccccc1COc1ccn(-c2ccc(Cl)cc2)n1 [pyraclostrobin (B9), methyl N-{2-[1-(4-chlorophenyl)-1H-pyrazol-3-yloxymethyl]phenyl}(N-methoxy)carbamate]
inhibition at 63 ppm (Botrytis cinerea [2]; 63 ppm, commercial formulation): 20%

Cc1ccc(N(SC(F)(Cl)Cl)S(=O)(=O)N(C)C)cc1 [tolylfluanid (F29), N-dichlorofluoromethylthio-N′,N′-dimethyl-N-p-tolylsulfamide]
inhibition at 250 ppm (Botrytis cinerea [2]; 250 ppm): 20%
